In patent publication US20240307350A1, “5-METHOXY-N,N-DIMETHYLTRYPTAMINE (5-MEO-DMT) FOR TREATING DEPRESSION” (GH RESEARCH IRELAND LIMITED, priority 2019, published 2024):

Test system: patients with treatment-resistant major depressive disorder
Assay: Clinical trial in treatment-resistant major depressive disorder: intensity of the psychedelic effects (MEQ30, ASC, PPEQ)
Assay type: in vivo, human
Details: for ASC Oceanic Boundlessness (0-2700) / MEQ30 Ineffability (0 to 5) / MEQ30 Mystical (0 to 5) / MEQ30 Positive Mood (0 to 5) / MEQ30 Total Score Average (0 to 5) / MEQ30 Transcendence Time/Space (0 to 5) / PPEQ Intensity (0-100) / PPEQ Loss of Control (0-100) / PPEQ Profoundness (0-100) / PPEQ Total Score (0-100) / PPEQ PPE achieved / MEQ30 PPE achieved / ASC PPE achieved: 12 mg inhaled; for PPEQ PPE achieved: PPEQ Total Score of at least 75; for MEQ30 PPE achieved: at least 60% of the maximum possible score in each of the four subscales; for ASC PPE achieved: at least 60% of the maximum possible score of Oceanic Boundlessness
Text: The occurrence of a “peak psychedelic experience” in a patient can be identified through achievement of at least 60% of the maximum possible score in each of the four subscales (mystical, positive mood, transcendence of time and space, and ineffability) of the 30-item revised Mystical Experience Questionnaire (MEQ30) (as described in Barrett F S, J Psychopharmacol. 2015; 29(11):1182-90; Score items shown in Example 4).
The occurrence of a “peak psychedelic experience” in a patient can also be identified through achievement of at least 60% of the maximum possible score of the Oceanic Boundlessness (OBN) dimension of the Altered States of Consciousness (ASC) questionnaire (as described in Roseman L et al., Front Pharmacol. 2018; 8:974).
The occurrence of a “peak psychedelic experience” in a patient can also be identified through achievement of a score of at least 75 in the Peak Psychedelic Experience Questionnaire (PPEQ) Total Score, which averages answers scored by the patient from 0 to 100 for the following three questions: 1. How intense was the experience; 2. To what extent did you lose control; 3. How profound (i.e. deep and significant) was the experience?
A clinical trial was performed in which 5-MeO-DMT free base (purity not less than 99%) was administered to patients with treatment-resistant major depressive disorder (TRD). The objectives of the study were to assess the safety and tolerability, the dose-related psychedelic effects and the effects on various measures of depression of single-day dosing of 5-MeO-DMT. The trial was reviewed and approved by the relevant national competent authority and local medical ethics committee. Patients recruited into the trial had to meet the Diagnostic and Statistical Manual of Mental Disorders-Fifth Edition (DSM-5) diagnostic criteria for single-episode or recurrent major depressive disorder and had to be treatment-resistant, both aspects as evaluated by a psychiatrist or registered psychologist. Patients who were using any psychoactive medication or substance (such as anti-depressive medication) had to discontinue such medication or substance and had to observe a wash-out period before the 5-MeO-DMT administration. On the administration day, a single dose of 12 mg 5-MeO-DMT was administered to the patients via a single inhalation as described in Example 1A. Patients were closely monitored for 3.5 hours after administration, with additional follow-up visits 1 day and 7 days after dosing. Various safety related measures (e.g., adverse event reporting, safety laboratory analyses, vital signs, electrocardiogram (ECG), Clinician Administered Dissociative States Scale (CADSS), Psychomotor Vigilance Test (PVT), Digit Symbol Substitution Test (DSST)), measures of the intensity of the psychedelic effects (e.g., Peak Psychedelic Experience Questionnaire (PPEQ), Altered States of Consciousness (ASC) Questionnaire, Mystical Experience Questionnaire (MEQ30), subjective description of the psychedelic experience), measures of depression severity (Montgomery-Åsberg Depression Rating Scale (MADRS), Patient's Global Impression of Severity scale (PGI-S), Patient's Global Impression of Improvement scale (PGI-I)), and additional psychological measures (e.g., Columbia-Suicide Severity Rating Scale (C-SSRS), Brief Psychiatric Rating Scale (BPRS)) were recorded at different time points. Psychological support via a psychologist and/or psychiatrist was available to the patients throughout the study, but no specific psychotherapy was applied, and no additional psychoactive medication was provided.
The score for each individual subscale is computed by calculating the average score (from the scale of 0 to 5) for the phenomena belonging to the subscale as listed below.
The MEQ30-total score is computed by taking the average response to all phenomena. […]

For `COc1ccc2[nH]cc(CCN(C)C)c2c1` [5-MeO-DMT, 5-methoxy-N,N-dimethyltryptamine], the “ASC Oceanic Boundlessness (0-2700)” value (Patient 1) was 1696, the “MEQ30 Ineffability (0 to 5)” value (Patient 1) was 4.7 and the “MEQ30 Mystical (0 to 5)” value (Patient 1) was 3.5. The “MEQ30 Positive Mood (0 to 5)” value (Patient 1) was 4.5, the “MEQ30 Total Score Average (0 to 5)” value (Patient 1) was 3.8 and the “MEQ30 Transcendence Time/Space (0 to 5)” value (Patient 1) was 3.7. The “PPEQ Intensity (0-100)” value (Patient 1) was 94, the “PPEQ Loss of Control (0-100)” value (Patient 1) was 45 and the “PPEQ Profoundness (0-100)” value (Patient 1) was 87. The “PPEQ Total Score (0-100)” value (Patient 1) was 75.3, the “PPEQ PPE achieved” value (Patient 1) was “Yes” and the “MEQ30 PPE achieved” value (Patient 1) was “Yes”. For the same compound, the “ASC PPE achieved” value (Patient 1) was “Yes”, the “ASC Oceanic Boundlessness (0-2700)” value (Patient 2) was 1297 and the “MEQ30 Ineffability (0 to 5)” value (Patient 2) was 3.3. For the same compound, the “MEQ30 Mystical (0 to 5)” value (Patient 2) was 3.1, the “MEQ30 Positive Mood (0 to 5)” value (Patient 2) was 4.0 and the “MEQ30 Total Score Average (0 to 5)” value (Patient 2) was 3.4. For the same compound, the “MEQ30 Transcendence Time/Space (0 to 5)” value (Patient 2) was 3.5, the “PPEQ Intensity (0-100)” value (Patient 2) was 100 and the “PPEQ Loss of Control (0-100)” value (Patient 2) was 58. The “PPEQ Profoundness (0-100)” value (Patient 2) was 80, the “PPEQ Total Score (0-100)” value (Patient 2) was 79.3 and the “PPEQ PPE achieved” value (Patient 2) was “Yes”. For the same compound, the “MEQ30 PPE achieved” value (Patient 2) was “Yes”, the “ASC PPE achieved” value (Patient 2) was “No” and the “duration of the psychedelic experience as judged by an external observer” value (patient 1, single dose of 12 mg via inhalation) was 16 min. For the same compound, the “duration of the psychedelic experience as judged by an external observer” value (patient 2, single dose of 12 mg via inhalation) was 40 min and the “first psychedelic symptoms after the inhalation (onset)” value (single dose of 12 mg via inhalation, both patients) was “within a few seconds”.
